Assays:
D(2) dopamine receptor = D(2) dopamine receptor (Homo sapiens, UniProt P14416); test: Displacement of [3H]-N-methylspiperone from recombinant human D2 receptor stably expressed in fibroblast cell membranes measured after 90 mins by microbeta scintillation counting method
D(3) dopamine receptor = D(3) dopamine receptor (Homo sapiens, UniProt P35462); test: Displacement of [3H]-N-methylspiperone from recombinant human D3 receptor (unknown origin) measured after 90 mins by microbeta scintillation counting method
Chain of D(3) dopamine receptor (P35462 whole entry): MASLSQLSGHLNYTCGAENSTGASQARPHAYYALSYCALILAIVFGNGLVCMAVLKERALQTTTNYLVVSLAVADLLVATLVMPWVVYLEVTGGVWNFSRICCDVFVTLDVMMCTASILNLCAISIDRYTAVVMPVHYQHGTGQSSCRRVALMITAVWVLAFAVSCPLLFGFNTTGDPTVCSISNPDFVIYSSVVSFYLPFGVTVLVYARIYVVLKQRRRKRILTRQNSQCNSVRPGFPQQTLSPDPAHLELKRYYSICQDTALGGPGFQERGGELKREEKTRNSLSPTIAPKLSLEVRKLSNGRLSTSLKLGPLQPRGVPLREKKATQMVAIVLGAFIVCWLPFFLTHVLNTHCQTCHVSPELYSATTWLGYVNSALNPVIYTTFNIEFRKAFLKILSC

D(4) dopamine receptor = molecular target: T1, D(4) dopamine receptor (Homo sapiens, UniProt P21917); test: Displacement of [3H]-N-methylspiperone from recombinant human D4 receptor stably expressed in HEK cell membranes measured after 90 mins by microbeta scintillation counting method
T1 sequence (P21917 whole entry): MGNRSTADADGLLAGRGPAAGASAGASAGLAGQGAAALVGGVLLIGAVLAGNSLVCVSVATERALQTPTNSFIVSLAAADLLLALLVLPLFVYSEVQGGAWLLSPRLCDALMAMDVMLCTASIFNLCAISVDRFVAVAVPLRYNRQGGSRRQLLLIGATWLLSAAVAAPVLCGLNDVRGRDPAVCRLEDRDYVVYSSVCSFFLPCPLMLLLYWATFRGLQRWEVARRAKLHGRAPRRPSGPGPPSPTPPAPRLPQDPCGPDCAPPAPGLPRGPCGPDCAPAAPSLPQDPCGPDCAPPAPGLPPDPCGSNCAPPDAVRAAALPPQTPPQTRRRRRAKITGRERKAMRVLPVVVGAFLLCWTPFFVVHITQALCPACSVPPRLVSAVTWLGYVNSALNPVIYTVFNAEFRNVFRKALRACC

D(1A) dopamine receptor = D(1A) dopamine receptor (Homo sapiens, UniProt P21728); test: Displacement of [3H]-SCH23390 from recombinant human D1 receptor transiently expressed in HEKT cell membranes measured after 90 mins by microbeta scintillation counting method
Chain of D(1A) dopamine receptor (P21728 whole entry): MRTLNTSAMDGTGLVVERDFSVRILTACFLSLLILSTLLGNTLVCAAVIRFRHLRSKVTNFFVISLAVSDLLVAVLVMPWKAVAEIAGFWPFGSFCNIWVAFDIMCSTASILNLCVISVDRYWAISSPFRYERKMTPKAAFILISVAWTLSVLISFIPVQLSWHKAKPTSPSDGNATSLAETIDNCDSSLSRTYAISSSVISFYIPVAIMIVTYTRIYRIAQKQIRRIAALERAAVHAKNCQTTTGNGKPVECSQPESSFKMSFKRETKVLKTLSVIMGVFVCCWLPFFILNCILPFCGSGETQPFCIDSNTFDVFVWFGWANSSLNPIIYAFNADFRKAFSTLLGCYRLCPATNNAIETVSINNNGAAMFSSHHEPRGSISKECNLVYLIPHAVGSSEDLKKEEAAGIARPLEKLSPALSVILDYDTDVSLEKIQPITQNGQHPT

[1] = molecular target: T2, 5-hydroxytryptamine receptor 2C (Homo sapiens, UniProt P28335); test: Displacement of [3H]-Mesulergine from recombinant human 5HT2C receptor expressed in HEKT cell membranes measured after 90 mins by microbeta scintillation counting method
T2 sequence (P28335 whole entry): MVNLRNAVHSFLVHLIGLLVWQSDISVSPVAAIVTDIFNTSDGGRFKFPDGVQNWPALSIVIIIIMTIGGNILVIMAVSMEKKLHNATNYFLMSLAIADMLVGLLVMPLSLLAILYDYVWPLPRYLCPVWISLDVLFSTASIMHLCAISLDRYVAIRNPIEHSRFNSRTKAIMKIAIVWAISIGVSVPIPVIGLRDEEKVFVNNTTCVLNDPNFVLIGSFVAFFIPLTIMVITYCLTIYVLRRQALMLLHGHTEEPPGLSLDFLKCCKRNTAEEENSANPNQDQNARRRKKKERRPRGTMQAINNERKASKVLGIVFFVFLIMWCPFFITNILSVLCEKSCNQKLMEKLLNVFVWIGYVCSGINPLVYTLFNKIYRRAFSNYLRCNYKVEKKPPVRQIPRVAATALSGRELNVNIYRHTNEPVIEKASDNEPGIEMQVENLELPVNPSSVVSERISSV

D(1B) dopamine receptor = D(1B) dopamine receptor (Homo sapiens, UniProt P21918); test: Displacement of [3H]-SCH23390 from recombinant human D5 receptor transiently expressed in HEKT cell membranes measured after 90 mins by microbeta scintillation counting method
Chain of D(1B) dopamine receptor (P21918 whole entry): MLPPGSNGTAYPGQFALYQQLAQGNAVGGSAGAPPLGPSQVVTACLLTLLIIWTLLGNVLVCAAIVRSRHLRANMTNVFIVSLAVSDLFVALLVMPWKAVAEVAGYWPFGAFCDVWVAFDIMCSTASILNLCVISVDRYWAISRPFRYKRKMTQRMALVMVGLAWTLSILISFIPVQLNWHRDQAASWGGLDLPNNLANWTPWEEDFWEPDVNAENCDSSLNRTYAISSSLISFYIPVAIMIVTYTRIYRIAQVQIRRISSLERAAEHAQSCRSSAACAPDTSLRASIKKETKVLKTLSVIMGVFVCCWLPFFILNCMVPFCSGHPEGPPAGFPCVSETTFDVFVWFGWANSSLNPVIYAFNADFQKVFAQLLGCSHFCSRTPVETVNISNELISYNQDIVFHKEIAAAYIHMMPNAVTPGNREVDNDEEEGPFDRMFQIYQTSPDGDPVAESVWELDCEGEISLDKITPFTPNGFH

Chain of D(2) dopamine receptor (P14416 whole entry): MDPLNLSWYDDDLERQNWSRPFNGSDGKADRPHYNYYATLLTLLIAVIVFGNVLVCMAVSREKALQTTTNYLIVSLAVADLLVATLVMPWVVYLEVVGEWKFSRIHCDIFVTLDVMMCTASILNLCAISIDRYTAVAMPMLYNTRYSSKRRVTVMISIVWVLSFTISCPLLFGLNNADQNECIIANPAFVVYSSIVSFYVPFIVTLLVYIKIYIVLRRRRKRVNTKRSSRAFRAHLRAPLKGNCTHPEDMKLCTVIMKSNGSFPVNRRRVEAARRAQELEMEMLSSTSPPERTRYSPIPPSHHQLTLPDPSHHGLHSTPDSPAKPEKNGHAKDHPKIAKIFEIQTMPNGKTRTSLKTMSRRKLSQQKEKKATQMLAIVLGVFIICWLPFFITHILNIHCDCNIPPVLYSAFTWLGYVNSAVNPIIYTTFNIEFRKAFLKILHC

| Structure (SMILES) | Ki (D(2) dopamine receptor) | Ki (D(3) dopamine receptor) | Ki (D(4) dopamine receptor) | Ki (D(1A) dopamine receptor) | Ki [1] | Ki (D(1B) dopamine receptor) |
| --- | --- | --- | --- | --- | --- | --- |
| CCCN(CCCCNC(=O)c1cc2ccccc2[nH]1)CC1CC1c1ccc(F)cc1 (stereo unspecified) | 5930 nM | 45.7 nM | 1610 nM | 1460 nM | 219 nM | 10500 nM |
| COc1ccc(F)cc1C1CC1CN(CCCSc1nnc(-c2ccccc2)n1C)C(C)C (stereo unspecified) | 513 nM | 105 nM | 326 nM | > 5000 nM | 495 nM | > 5000 nM |
| CCCN(CCCCNC(=O)c1ccc2ccccc2c1)CC1CC1c1ccc(F)cc1 (stereo unspecified) | 5620 nM | 55.8 nM | 2170 nM | 992 nM | 238 nM | > 5000 nM |
| CCCN(CCCCNC(=O)c1ccc(-c2ccccn2)cc1)CC1CC1c1ccc(C(F)(F)F)cc1 (stereo unspecified) | > 5000 nM | 23.4 nM | 2170 nM | 1420 nM | 2360 nM | 7700 nM |
| CCCN(CCCCNC(=O)c1ccc(-c2ccccn2)cc1)CC1CC1c1cccc(F)c1 (stereo unspecified) | > 5000 nM | 45.4 nM | 2220 nM | 2910 nM | 1340 nM | > 5000 nM |
| CCCN(CCCCNC(=O)c1ccc(-c2ccccn2)cc1)CC1CC1c1ccc(F)cc1 (stereo unspecified) | > 5000 nM | 106 nM | 2880 nM | 3630 nM | 2170 nM | > 5000 nM |

Reference: ChEMBL document CHEMBL4402598, “Design and Synthesis of Bitopic 2-Phenylcyclopropylmethylamine (PCPMA) Derivatives as Selective Dopamine D3 Receptor Ligands” (J Med Chem, 2020)
